The source of these data is publication PMC2364952, “The Anti-Inflammatory Activity of Boron Derivatives in Rodents” (Metal-Based Drugs, 1995).

For test [1], the system named is carrageenan-induced inflammation of paw. As to the kind of experiment: Carrageenan-induced paw edema, rats.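 For Rat Inflammatory: paw weight increase as percent of control rats.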 In kind it is in vivo, Sprague Dawley male rats. The settings on record: for Rat Inflammatory: 8 mg/kg x 2, I.P., Table 2. (In general: In the carrageenan paw model, swelling and tenderness develop within hours.)
For test [2], the system named is acetic acid induced stretch reflex. As to the kind of experiment: Local analgesic screen (acetic acid writhing). The settings on record: for Mice Writhing Reflex: 8 mg/kg I.P., Table 2; for reduction of the reflex action: mice, acetic acid induced local pain, 8 mg/kg. The test is classed as in vivo, CF1 mice. Background: An intraperitoneal irritant provokes the stretching counted in writhing tests.

Test [3] deals with carrageenan-induced pleural fluid. As to the kind of experiment: Anti-pleurisy screen.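 For Rat Pleurisy: Pleural fluid volume as percent of control rats.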 The test is classed as in vivo, Sprague Dawley male rats. The settings on record: for pleurisy edema in rats: 8 mg/kg; for Rat Pleurisy: rats, 8 mg/kg I.P., 1 h before and 3 h after carrageenan, Table 2.
For test [4], the system named is adjuvant (M. butyricum) arthritis. Put plainly: Chronic adjuvant arthritic screen. The settings on record: rats; for Rat Chronic Arthritis: 8 mg/kg/day I.P., Day 3 to Day 21, Table 2. The test is classed as in vivo.
The target in another test is acid phosphatase. Put plainly: Acid phosphatase activity, mouse macrophages. The settings on record: Table 3; read-out: IC50 Acid Phosphatase, Mouse Macrophage. In kind it is cell-based, mouse (J774 macrophages).
The next test has as its system cathepsin. Put plainly: Cathepsin activity, mouse macrophages. In kind it is cell-based, mouse (J774 macrophages). The settings on record: Table 3; read-out: IC50 Cathepsin, Mouse Macrophage.
A further test addresses aryl sulphatase. As to the kind of experiment: Aryl sulfatase activity, mouse macrophages. In kind it is cell-based, mouse (J774 macrophages). The settings on record: Table 3; read-out: IC50 Aryl Sulfatase, Mouse Macrophage.
In test [5] the test system is trypsin. Put plainly: Trypsin proteolytic activity, mouse macrophages. The test is classed as cell-based, mouse (J774 macrophages). The settings on record: Table 5; read-out: IC50 Trypsin, Mouse Macrophage.
The target in test [6] is elastase. As to the kind of experiment: Elastase activity, mouse macrophages. The test is classed as cell-based, mouse (J774 macrophages). The settings on record: Table 5; read-out: IC50 Elastase, Mouse Macrophage.
Test [7] has as its system trypsin. Put plainly: Trypsin activity, UMR-106 osteosarcoma cells. In kind it is cell-based. The settings on record: Table 6; read-out: IC50 Trypsin, Rat UMR-106 Bone Osteosarcoma.
Another test has as its system neutral cathepsin. As to the kind of experiment: Cathepsin activity, UMR-106 osteosarcoma cells. The test is classed as cell-based. The settings on record: Table 6; read-out: IC50 Neutral Cathepsin, Rat UMR-106 Bone Osteosarcoma.
In test [8] the test system is elastase. Put plainly: Elastase activity, UMR-106 osteosarcoma cells. The test is classed as cell-based. The settings on record: Table 6; read-out: IC50 Elastase, Rat UMR-106 Bone Osteosarcoma.
In test [9] the target is prostaglandin cyclooxygenase. Put plainly: Prostaglandin cyclooxygenase activity, macrophages. The settings on record: Table 7. The test is classed as cell-based, mouse (J774 macrophages).
In test [10] the test system is prostaglandin cyclooxygenase. As to the kind of experiment: Prostaglandin cyclooxygenase activity, Be Sal cells. The settings on record: Table 7; read-out: IC50 Prostaglandin Cyclooxygenase, Be Sal Osteofibro. The test is classed as cell-based, human (Be Sal osteofibrolytic cells).
Test [11] concerns the target T1, prostaglandin cyclooxygenase (Bos taurus, UniProt O62664).
T1 construct: purified commercial prostaglandin synthetase from bovine seminal vesicles (Miles Research Products); purchased Miles Research Products; host or cells: bovine seminal vesicles (tissue preparation)
T1 sequence (O62664 25-600): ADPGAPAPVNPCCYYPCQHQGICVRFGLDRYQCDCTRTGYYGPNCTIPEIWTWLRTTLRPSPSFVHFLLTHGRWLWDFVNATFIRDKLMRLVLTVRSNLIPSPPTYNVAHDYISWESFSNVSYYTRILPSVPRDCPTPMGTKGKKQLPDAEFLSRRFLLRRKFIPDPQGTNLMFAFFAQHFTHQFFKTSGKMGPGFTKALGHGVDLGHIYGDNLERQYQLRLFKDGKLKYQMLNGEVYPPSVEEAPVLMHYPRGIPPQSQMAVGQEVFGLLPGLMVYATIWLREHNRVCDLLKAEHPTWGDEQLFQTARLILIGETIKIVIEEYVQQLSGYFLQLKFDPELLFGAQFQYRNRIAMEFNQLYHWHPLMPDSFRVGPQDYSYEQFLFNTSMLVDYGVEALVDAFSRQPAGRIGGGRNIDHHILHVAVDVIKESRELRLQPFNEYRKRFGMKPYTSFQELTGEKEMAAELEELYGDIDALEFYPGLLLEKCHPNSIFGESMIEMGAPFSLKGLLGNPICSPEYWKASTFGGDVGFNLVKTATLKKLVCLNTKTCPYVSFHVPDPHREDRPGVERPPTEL
As to the kind of experiment: Prostaglandin synthetase from bovine seminal vesicles. In kind it is biochemical. The settings on record: Table 7; read-out: IC50 Prostaglandin Cyclooxygenase, Beef Seminal Vesicle.

In test [12] the target is T2, 5'-lipoxygenase (Mus musculus, UniProt P48999).
T2 construct: endogenous in cells; host or cells: mouse macrophages (J774A as maintained above)
T2 sequence (P48999 1-674): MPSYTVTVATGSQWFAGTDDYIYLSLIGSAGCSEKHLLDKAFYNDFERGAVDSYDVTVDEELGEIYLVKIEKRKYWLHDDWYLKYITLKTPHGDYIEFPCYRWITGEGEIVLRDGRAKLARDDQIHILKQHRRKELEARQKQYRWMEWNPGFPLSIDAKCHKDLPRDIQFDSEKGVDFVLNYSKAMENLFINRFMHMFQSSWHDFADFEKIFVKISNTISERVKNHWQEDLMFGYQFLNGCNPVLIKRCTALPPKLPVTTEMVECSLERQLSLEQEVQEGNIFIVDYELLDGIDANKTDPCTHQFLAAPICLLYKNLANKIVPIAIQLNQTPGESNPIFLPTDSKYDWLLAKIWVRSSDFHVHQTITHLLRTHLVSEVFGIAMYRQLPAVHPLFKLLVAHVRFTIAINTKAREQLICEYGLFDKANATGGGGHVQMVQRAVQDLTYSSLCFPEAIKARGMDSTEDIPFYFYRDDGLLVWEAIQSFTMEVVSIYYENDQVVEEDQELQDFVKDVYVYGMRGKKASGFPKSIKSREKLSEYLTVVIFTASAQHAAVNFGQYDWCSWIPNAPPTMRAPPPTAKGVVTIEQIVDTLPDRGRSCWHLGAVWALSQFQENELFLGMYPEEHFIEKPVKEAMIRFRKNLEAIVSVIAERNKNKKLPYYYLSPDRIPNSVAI
As to the kind of experiment: 5'-Lipoxygenase activity, mouse macrophages. In kind it is cell-based. The settings on record: Table 7; read-out: IC50 5'-Lipoxygenase, Mouse Macrophage.

The target in test [13] is T3, 5'-lipoxygenase (Homo sapiens, UniProt P09917).
T3 construct: endogenous in cells; host or cells: RMPI 1788 human leukocytes
T3 sequence (P09917 1-674): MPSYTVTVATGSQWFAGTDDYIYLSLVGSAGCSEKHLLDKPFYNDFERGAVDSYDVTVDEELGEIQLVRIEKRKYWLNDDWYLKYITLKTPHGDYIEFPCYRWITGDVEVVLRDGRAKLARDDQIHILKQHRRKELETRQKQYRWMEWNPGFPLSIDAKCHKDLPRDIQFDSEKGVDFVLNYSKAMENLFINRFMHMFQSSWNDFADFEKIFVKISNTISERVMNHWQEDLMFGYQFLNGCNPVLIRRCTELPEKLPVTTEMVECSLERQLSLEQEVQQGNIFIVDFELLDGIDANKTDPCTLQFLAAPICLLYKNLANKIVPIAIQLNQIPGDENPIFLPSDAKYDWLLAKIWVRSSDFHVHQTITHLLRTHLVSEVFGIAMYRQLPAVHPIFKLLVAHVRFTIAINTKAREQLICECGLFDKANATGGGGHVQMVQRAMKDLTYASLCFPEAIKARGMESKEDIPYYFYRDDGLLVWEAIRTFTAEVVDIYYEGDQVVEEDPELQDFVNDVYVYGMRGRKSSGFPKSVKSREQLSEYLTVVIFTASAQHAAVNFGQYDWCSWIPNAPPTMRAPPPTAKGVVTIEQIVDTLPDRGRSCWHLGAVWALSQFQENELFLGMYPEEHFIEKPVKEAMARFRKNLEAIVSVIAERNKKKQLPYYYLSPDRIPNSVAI
As to the kind of experiment: 5'-Lipoxygenase activity, human leukocytes. The test is classed as cell-based. The settings on record: Table 7.

In test [14] the test system is tail flick response to heat. As to the kind of experiment: Hot plate tail flick screen. The test is classed as in vivo, CF1 male mice. The settings on record: for Mice Tail Flick: 8 mg/kg I.P., hot plate, Table 2; for tail flick assay time: mice, 8 mg/kg.

The term IC50 denotes the concentration that inhibits the measured activity by half. As to `C[N+](C)(C)[BH2-]C#N` [Compound 34], the “Rat Inflammatory” value in test [1] is recorded as 65 % of control. In addition, in test [2], the “Mice Writhing Reflex” value is on record as 18 % of control. Also, the “reduction of the reflex action” value in [2] was 80%. In [3], the “pleurisy edema in rats” value was “reduced significantly”. The “Rat Pleurisy” value in test [3] was 65 % of control. In addition, in [4] (8 mg/kg/day), the reduction of pannus result is “greater than 75%”. Further, in test [4], the “Rat Chronic Arthritis” value is 4 % of control. For the same compound, the IC50 is 1.05 µM at acid phosphatase; 6.34 µM in the test with cathepsin; 9.29 µM at aryl sulphatase; 1.41 µM with trypsin [5]; 1.35 µM on elastase [6]; 2.62 µM in the test on trypsin [7]. Besides, the 50% inhibitory concentration (IC50) with neutral cathepsin is 5.46 µM; with elastase [8], 8.99 µM; in test [9] it was 5.88 µM; in test [10], 4.26 µM; in test [11], 5.9 µM; on 5'-lipoxygenase [12] it was 8.07 µM. This compound showed a concentration for half-maximal inhibition (IC50) on 5'-lipoxygenase [13] of 6.43 µM.

For the compound `O=C(O)[BH2-][P+](c1ccccc1)(c1ccccc1)c1ccccc1` [Compound 12], in test [1], the “Rat Inflammatory” value is reported as 61 % of control. For the same compound, the “Mice Writhing Reflex” value in test [2] is on record as 19 % of control. Besides, the “reduction of the reflex action” value in [2] was 80%. In addition, in test [14], the “Mice Tail Flick” value is listed as 197 % of control. In addition, in test [14], the “tail flick assay time” value is listed as “increased”. Besides, the “pleurisy edema in rats” value in test [3] is recorded as “reduced significantly”. Also, in test [3], the “Rat Pleurisy” value is given as 28 % of control. The “activity in chronic arthritis screen” value in test [4] (8 mg/kg/day) is “significantly active”. Further, in [4], the “Rat Chronic Arthritis” value was 49 % of control. The IC50 on acid phosphatase was determined as 1.08 µM; with cathepsin, 5.52 µM; at aryl sulphatase, 8.58 µM; with trypsin [5], 1.77 µM; on elastase [6], 3.04 µM; in the test on trypsin [7], 5.67 µM. Besides, the IC50 in the test with neutral cathepsin stood at 5.81 µM; with elastase [8], 8.86 µM; in test [9] it was 3.53 µM; in test [10] it was 5.49 µM; in test [11], 7.6 µM; at 5'-lipoxygenase [12] it was 9.8 µM. In addition, the 50% inhibitory concentration (IC50) on 5'-lipoxygenase [13] is 4.77 µM.

On to `CCCCCCCCCCCCCCCC[N+](C)(C)[BH2-]C(=O)O` [Compound 8], for which, in test [1] (8 mg/kg x 2), the “reduction in induced edema in rats” value is given as “at least 40%”. The “Rat Inflammatory” value in test [1] is recorded as 59 % of control. Further, the “Mice Writhing Reflex” value in test [2] is listed as 16 % of control. In addition, in test [2], the “reduction of the reflex action” value stood at 80%. Besides, the “Mice Tail Flick” value in test [14] is given as 167 % of control. Besides, the “tail flick assay time” value in test [14] is listed as “increased”. In addition, the “pleurisy edema in rats” value in [3] is listed as “reduced significantly”. For the same compound, the “Rat Pleurisy” value in [3] is recorded as 19 % of control. The “activity in chronic arthritis screen” value in [4] (8 mg/kg/day) is on record as “significantly active”. For the same compound, the “Rat Chronic Arthritis” value in [4] was 40 % of control. In addition, the IC50 came to 0.94 µM at acid phosphatase; 7.18 µM in the test with cathepsin; 9.71 µM at aryl sulphatase; 1.26 µM in the test with trypsin [5]; 1.8 µM on elastase [6]; 6.56 µM in the test on trypsin [7]. For the same compound, the half-maximal inhibitory concentration (IC50) with neutral cathepsin was 6.59 µM; in the test on elastase [8], 9.58 µM; in test [9] it was 2.55 µM; in test [10] it was 6.77 µM; in [11], 2.43 µM; at 5'-lipoxygenase [12], 8.76 µM. This compound had a half-maximal inhibitory concentration (IC50) against 5'-lipoxygenase [13] of 1.53 µM.
